Reference: PMC10114720

Experiments:
[1] = PDMS sheets cleaned by Soxhlet with ethyl acetate; batch shaking method with a mixture of all chemicals at several PDMS-mass to water-volume ratios and spiked levels; vials shaken on an orbital shaker at room temperature in the dark, sampled at two equilibration times; PDMS extracts and water quantified by LC-HRMS (Orbitrap); D from the slope of C_PDMS on C_w or their ratio; value is the mean over that pH's experiments (individual experiments in the SI's concentrations table), sd is the table's stdev; conditions: PDMS (polydimethylsiloxane silicone sheet), phosphate buffer at three target pH values (the paper's methods)
[2] = monoprotic acid or base: log K of the neutral species extrapolated from the linear regression of D on the neutral fraction (from pKa and pH; the paper's eq. for monoprotic IOCs), the slope giving K of the neutral species; replicates column holds the table's 95% confidence limits. PDMS sheets cleaned by Soxhlet with ethyl acetate; batch shaking method with a mixture of all chemicals at several PDMS-mass to water-volume ratios and spiked levels; vials shaken on an orbital shaker at room temperature in the dark, sampled at two equilibration times; PDMS extracts and water quantified by LC-HRMS (Orbitrap); D from the slope of C_PDMS on C_w or their ratio; conditions: PDMS (polydimethylsiloxane silicone sheet); phosphate buffer at three target pH values (the paper's methods)

SMILES | log D PDMS/w (apparent distribution ratio at the stated pH) ([1]; pH 3) | log D PDMS/w (apparent distribution ratio at the stated pH) ([1]; pH 7.4) | log K PDMS/w (neutral species) [2] | log D PDMS/w (apparent distribution ratio at the stated pH) ([1]; pH 11.5)
Clc1cccc(Cl)c1NC1=NCCN1 | 0.07 log units; D and K as the pape | 1.56 log units; D and K as the pape | 2.618 log units; D and K as the pape | –
CCc1cccc(C)c1N(C(=O)C(=O)O)C(C)C(=O)O (stereo not shown) | 1.878 log units; D and K as the pape | 3.06 log units; D and K as the pape | – | 3.008 log units; D and K as the pape
O=C(O)Cc1ccccc1Nc1c(Cl)cccc1Cl | – | – | 1.867 log units; D and K as the pape | –
CC(C)C(=O)Nc1ccc([N+](=O)[O-])c(C(F)(F)F)c1 | 1.476 log units; D and K as the pape | 1.423 log units; D and K as the pape | 1.525 log units; D and K as the pape | –
CCc1ccc(CCOc2ccc(CC3SC(=O)NC3=O)cc2)nc1 (stereo not shown) | 0.7792 log units; D and K as the pape | 2.087 log units; D and K as the pape | – | -0.02556 log units; D and K as the pape
CCOC(=O)c1ccc(N(C)C)cc1 | 2.216 log units; D and K as the pape | 2.266 log units; D and K as the pape | 2.315 log units; D and K as the pape | 2.184 log units; D and K as the pape
O=C(Nc1ccc(Cl)c(Cl)c1)c1cc(Cl)cc(Cl)c1O | – | – | 3.883 log units; D and K as the pape | –
CCCCc1nc(Cl)c(CO)n1Cc1ccc(-c2ccccc2-c2nn[nH]n2)cc1 | 0.8893 log units; D and K as the pape | -0.01 log units; D and K as the pape | 1.068 log units; D and K as the pape | -0.67 log units; D and K as the pape
c1ccc2nc3ccccc3cc2c1 | 0.945 log units; D and K as the pape | 2.315 log units; D and K as the pape | 2.366 log units; D and K as the pape | 2.167 log units; D and K as the pape
COCCc1ccc(OCC(O)CNC(C)C)cc1 (stereo not shown) | 0.28 log units; D and K as the pape | -0.003333 log units; D and K as the pape | – | –
c1ccc2sc(NC3CCCCC3)nc2c1 | 2.092 log units; D and K as the pape | 3.079 log units; D and K as the pape | 3.105 log units; D and K as the pape | 3.04 log units; D and K as the pape
CCOC(=O)NCCOc1ccc(Oc2ccccc2)cc1 | 3.077 log units; D and K as the pape | 2.994 log units; D and K as the pape | 3.121 log units; D and K as the pape | 2.967 log units; D and K as the pape
O=C(O)CCC(=O)c1ccc(F)cc1 | -0.02167 log units; D and K as the pape | – | 0.05461 log units; D and K as the pape | –
Oc1c(Br)cc(Cl)cc1Cc1cc(Cl)cc(Br)c1O | 3.724 log units; D and K as the pape | 2.256 log units; D and K as the pape | – | 0.555 log units; D and K as the pape
CO/C=C(/C(=O)O)c1ccccc1Oc1cc(Oc2ccccc2C#N)ncn1 | 1.162 log units; D and K as the pape | -0.4633 log units; D and K as the pape | 1.355 log units; D and K as the pape | -0.695 log units; D and K as the pape
c1ccc(-c2ccc(C(c3ccccc3)n3ccnc3)cc2)cc1 (stereo not shown) | 2.122 log units; D and K as the pape | 4.209 log units; D and K as the pape | 4.281 log units; D and K as the pape | 4.169 log units; D and K as the pape
c1ccc2[nH]nnc2c1 | 0.055 log units; D and K as the pape | 0.06625 log units; D and K as the pape | 0.1268 log units; D and K as the pape | –
Clc1ccc2n[nH]nc2c1 | 0.7386 log units; D and K as the pape | 0.79 log units; D and K as the pape | 1.144 log units; D and K as the pape | 0.065 log units; D and K as the pape
CCNC(=O)[C@@H](C)OC(=O)Nc1ccccc1 | 0.635 log units; D and K as the pape | 0.5527 log units; D and K as the pape | -0.07551 log units; D and K as the pape | 0.7717 log units; D and K as the pape
CC(C)(c1cc(Br)c(O)c(Br)c1)c1cc(Br)c(O)c(Br)c1 | 4.46 log units; D and K as the pape | 2.944 log units; D and K as the pape | – | –
CCOC(=O)CC(O)(CC(=O)OCC)C(=O)OCC | 1.101 log units; D and K as the pape | 1.143 log units; D and K as the pape | 0.9455 log units; D and K as the pape | –
O=C1Nc2ccc(Cl)cc2C(C#CC2CC2)(C(F)(F)F)O1 (stereo not shown) | 2.835 log units; D and K as the pape | 2.884 log units; D and K as the pape | 2.899 log units; D and K as the pape | –
COC(=O)Nc1nc2ccc(C(=O)c3ccccc3)cc2[nH]1 | 1.465 log units; D and K as the pape | 1.732 log units; D and K as the pape | – | 1.506 log units; D and K as the pape
CC(CCc1ccccc1)NCC(O)c1ccc(O)c(C(N)=O)c1 (stereo not shown) | -0.855 log units; D and K as the pape | -0.2383 log units; D and K as the pape | – | –
Nc1nc2ccccc2[nH]1 | – | -0.58 log units; D and K as the pape | – | -0.51 log units; D and K as the pape
N[C@@H](Cc1cc(I)c(Oc2cc(I)c(O)c(I)c2)c(I)c1)C(=O)O | 0.632 log units; D and K as the pape | 0.2933 log units; D and K as the pape | – | –
NC12CC3CC(CC(C3)C1)C2 | – | – | 2.916 log units; D and K as the pape | –
CNC(=O)Oc1cccc2ccccc12 | – | – | 1.106 log units; D and K as the pape | –
